“Also recorded” adds a separate entry of the source.
Experiments:
[1] = test system: catalase, GPx (glutathione peroxidase), SOD (superoxide dismutase); assay: Activity of catalase, GPx, SOD in kidney tissue; assay type: in vivo, Wistar-Hanover rats; settings: cisplatin 6 mg/kg i.p. only (group 13), FIG. 7
Experimental: (§1) Kidney samples collected from example <2-1> were immediately removed, washed in 0.9% saline and weighed. The kidneys were the mince with scissors, were homogenized in 0.1M Tris-HCl buffer (pH 7.4). The homogenization was carried out in Teflon-glass homogenizer (Bandelin, Germany) to obtain 1:10 (w/v) dilution. The homogenate was stored at −70° C. until analysis.
The activities of catalase, GPx, SOD which are anti-oxidative enzymes in kidney tissue were measured by a commercial kit.
Since catalase decomposes H2O2 into water and oxygen, the activity of CAT was measured through decreased absorbance by decomposition of H2O2. The absorbance was measured by using catalase assay kit (Sigma, CAT #100).
The activity of GPx was measured by using Glutathione peroxidase cellular activity assay kit CGP-1 (Sigma Aldrich, Cat. #CGP1). […] The decrease in NADPH absorbance measured at 340 nm, during the oxidation of NADPH to NADP is was indicative of GPx activity.
The activity of SOD is measured using the SOD assay kit (19160 SOD determination kit, Fluka/sigma Aldrich). The amount inhibiting 50% of xanthine oxidase activity per 1 mg of protein was set as 1 unit and the absorbance was measured at 450 nm.

[2] = test system: BUN (blood urea nitrogen) and creatine; assay: Analysis of kidney function (serum BUN and creatine), oral administration of PC; assay type: in vivo, Wistar-Hanover rats; settings: cisplatin 6 mg/kg i.p. alone (group 13), 6 days, FIG. 4
Experimental: Cisplatin and phosphatidylcholne were used as same as Example 1. But, phosphatidylcholne was suspended in 100 mg/ml of distilled water.
Thirty-six of 6-week-old adult male Wistar-Hanover rats (Nara-biotechnology, Seoul, Korea) were purchased and quarantined for 1 week and divided into 6 groups as shown in Table 4. They were maintained at 22±2° C. in 12 hour light dark cycle, and were given a normal laboratory diet (Purina. Korea) and fresh water ad libitum. Their body weight were 200˜220 g. After quarantine period, rats were fasted for 24 hours prior to injection of first phosphatidylcholine, but were allowed free access to water throughout.
In all groups, saline and cisplatin were injected intraperitoneally and phosphatidylcholine was administered orally. […]
Blood collected in Example <2-1> was centrifuged at 4000 rpm for 10 min and serum was separated. The level of BUN (blood urea nitrogen) and creatine in serum was measured.
The level of BUN was measured by Urase-GLDH method (Laboratory reference values. Urea nitrogen (BUN). Rochester, Minn.: Mayo Foundation for Medical Education and Research; November 2010), creatine was measured by Jaffe method (Jaffe method, Lamb E et al, tiez textbook of clinical chemistry and molecular diagnosis, St. louis; elsevier saunders, 2006; 791-801) and the contents were measured Beckman Coulter AU5421 (Beckman Coulter, USA).

[3] = Measurement of body weight change during the test period; assay type: in vivo, SD rats; settings: for change of body weight: 6 days
Experimental: 6-week aged male SD rats (albino S.D rat) were bought, stabilized for 1 week, and then divided into 6 groups noted in [table 1] for the test. Breeding environment conditions of 24±2° C., and 12-hour light-dark cycles were maintained, and non-antibiotic general solid feed was used.
For all groups, an agent was administered through intraperitoneal injection.
They were bred while changes in their body weights were measured for 6 days. Then, after they were euthanized, their blood samples 5 cc were collected by a cardiac puncture, and their kidneys were extracted for used in a test.
During the test period, a body weight of the test group was measured.

[4] = test system: GSH (glutathione) in kidney tissue; assay: Quantification of GSH (glutathione) in kidney tissue; assay type: in vivo, Wistar-Hanover rats; settings: cisplatin 6 mg/kg i.p. only (group 13), FIG. 6
Experimental: as §1
The total GSH content of kidney tissue prepared in the Example <2-3> was determined using a modification of the method of Beutler et al. (Beutler, Duron et al. 1963). The method uses principle that when DTNB (5′5-dithiobis-2-nitro-benzoic acid) and GHS react, 2-nitro-5-thiobenzoic acid (yellow color) are produced. Therefore, the concentration of GSH can be determined by measuring absorbance at 412 nm.
A mitochondrial fraction was prepared by centrifugation at 600 g for 5 mins and samples were added to 5% of metaphosphoric acid (MPA) and allowed to stand for 5 mins to precipitate proteins. 1M of Phosphate buffer (pH 7.0) was added to proteins in the volumetric ratio of 1:4 for homogenization and DTNB (5′5-dithiobis-2-nitro-benzoic acid) were added to proteins in the volumetric ratio of 8:5 for color development. GSH was determined by measuring absorbance at 415 nm (shimadzu UV-1240) and absolute concentrations were calculated using a GSH standard (Sigma, USA).

[5] = test system: kidney tissues; assay: Observation of a morphological change in kidney tissues (H&E, optical microscope); assay type: in vivo, SD rats; settings: CDDP 5 mg/kg i.p. alone (group 3), FIG. 3-B
Excerpt: A rats kidney obtained from Example <1-1> was fixed in 10% neutral formalin, sliced by microtechnique, and subjected to haematoxylin & eosin staining through a general tissue processing process. Each of the stained kidney tissues was observed by an optical microscope.

[6] = test system: MDA (malondialdehyde) in kidney tissue; assay: Quantification of lipid peroxidation (MDA) in kidney tissue; assay type: in vivo, Wistar-Hanover rats; settings: cisplatin 6 mg/kg i.p. only (group 13), FIG. 5
Experimental: as §1
Degradation products of lipid peroxidate comprise a lot of carbonyl compounds and the representative is malondialdehyde, MDA. Therefore, the level of lipid peroxidation can be measured by quantification of MDA.
For quantification of MDA, the method of Buege and Aust (1978) were used. The samples were centrifuged at 12,000 g at 4° C. for 15 min, then 0.3 ml supernatant was removed and mixed with 0.9 ml of 8% trichloroacetic acid (TCA). The sample was again centrifuged at 10,000 g at 4° C. for 5 min. A 1 ml aliquot of supernatant was added to 0.25 ml of 1% TBA, and the resulting solution was heated at 100° C. for 20 min. […] After centrifugation at 3,000 g at 4° C. for 5 min, 1 ml of the n-butanol phase was isolated and the absorbance at 532 nm was measured. The standard curve of MDA was calculated from the absorbance and the amount of MDA per weight of tissue was measured and it is shown in FIG. 5A.
MDA content was calculated with MDA standards (Buege and Aust 1978).

[7] = test system: BUN (blood urea nitrogen) and creatinine; assay: Test on a kidney function (serum BUN and creatinine), cisplatin nephrotoxicity, intra-peritoneal PC; assay type: in vivo, SD rats; settings: PC i.p. 1 hour after CDDP 5 mg/kg i.p.
Experimental: The separated serum was used to measure BUN (blood urea nitrogen) and creatinine.
The measurement of BUN was carried out by using a BUN measuring kit (Young dong diagnostics) in the same manner as described below. A urea agent 0.1 ml was mixed with buffer 20 ml to prepare enzyme buffer, and the prepared enzyme buffer was added to each of 2 test tubes. To one of the test tubes, a to-be-tested serum sample 0.02 ml was added, and to the other test tube, a control reference solution [containing urea-N 60 mg/100 ml] 0.02 ml was added, followed by culturing at 37° C. for 15 min. Then, each test tube was added with chromogenic solution 2 ml, and cultured at 37° C. for 5 min again. By measuring the absorbance at 570 nm, the level of produced BUN was measured.
The measurement of creatinine was carried out by using a creatinine measuring kit (young dong diagnostics) in the same manner as described below. […] Exactly after 15 min, at 515 nm, absorbency was measured.

[8] = test system: ICR mice; assay: Lethality reducing effect by paclitaxel (LD50 of paclitaxel with PC pretreatment); assay type: in vivo; settings: PC 0, 300, 600 mg/kg i.p. 4 hours before Taxol i.p.; lethality after 24 hours, FIG. 8; listed as phosphatidylcholine
Experimental: 6-week aged ICR mice (Samtako, Korea) were bought, and divided into 15 groups noted in table 5. They were stabilized for 20 hrs under conditions of 24±2° C., and 12-hour light-dark cycles while being fed with non-antibiotic general solid feed. […] After being stabilized, the mice were intra-peritoneally injected with the same phosphatidylcholine as that used in <Example 1-1>. After 4 hours, Taxol™ (BMS©, paclitaxel 6 mg/ml) was intra-peritoneally injected to the mice in which its amount was adjusted in such a manner that paclitaxel can be administered in an amount noted in table 5 below.
After 24 hours from administration of taxol, lethality of mice was measured. Based on the measured data on lethality, LD50 (a paclitaxel dose at lethality of 50%) in each of A, B, and C groups was measured.

[9] = test system: rats; assay: Lethality after 6 days, CDDP with or without PC; assay type: in vivo, SD rats; settings: PC 400 mg/kg i.p. alone (group 8)
Experimental: As noted in [table 3], a test group was prepared, and administered with a drug. After 6 days, lethality was calculated. An administration method, a test animal and a breeding method, etc. were the same as those in Example <1-1>.

| SMILES | levels of the anti-oxidative enzymes (catalase, GPx, SOD) in kidney tissue [1] | BUN level in serum [2] | creatine level in serum [2] | change of body weight ([3]; CDDP 5 mg/kg i.p. alone (group 3)) [%] | change of body weight ([3]; CDDP 5 mg/kg i.p. alone (group 3), listed as cisplatin) | body weight decreased by ([3]; CDDP 5 mg/kg i.p. alone (group 3), test period) | level of glutathione in kidney tissue [4] | morphological change in kidney tissues [5] | MDA level in kidney tissue [6] | change of body weight ([3]; PC 400 mg/kg i.p. alone (group 2)) | PC dose at which nephrotoxicity caused by CDDP was reduced [7] [mg/kg] | LD50 of paclitaxel [8] | lethal rate [9] [%] |
| --- | --- | --- | --- | --- | --- | --- | --- | --- | --- | --- | --- | --- | --- |
| N.N.[Cl][Pt][Cl] [CDDP, cis-dichlorodiammineplatinum] | significantly reduced compared to control group 11 | increase | increase | −7.1 | reduction in body weight | about 7.1% | significantly low compared to control group 11 | most epithelial cells in a proximal part and a distal part of the kidney showed a necrotic change through an inflammatory reaction | very high compared to control group 11 | – | – | – | – |
| CCCCC/C=C/CCCCCCCC(=O)OC(COC(=O)CCCCCCCCCCCCC)COP(=O)([O-])OCC[N+](C)(C)C [PC, 1,2-diacyl-L-3-glycerylphosphorylcholine] | – | – | – | – | – | – | – | – | – | +9.2% | ≥ 600 | tends to increase; also recorded: increases depending on dosage of phosphatidylcholine | 0 |
